#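 Assay format: 96-well plates, 48-hour exposure. Abbreviation: GI50, concentration required for 50% inhibition of growth. Definition used: TGI = concentration required for complete inhibition of growth.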
# What was measured:
# Assay in all cases: DTP human tumour cell line panel, 48 h
# BT-549 breast = test system: BT-549 breast
# MDA-MB-231 breast = test system: MDA-MB-231 breast
# SR leukemia = test system: SR leukemia
# SK-MEL-2 melanoma = test system: SK-MEL-2 melanoma
# HOP-92 NSCLC = test system: HOP-92 NSCLC
# HT29 colon = test system: HT29 colon
# SF-268 CNS = test system: SF-268 CNS
# CAKI-1 renal = test system: CAKI-1 renal
# SNB-75 CNS = test system: SNB-75 CNS
# KM12 colon = test system: KM12 colon
# HS 578T breast = test system: HS 578T breast
# SF-295 CNS = test system: SF-295 CNS
# NCI-H226 lung = test system: NCI-H226 lung
# UACC-257 melanoma = test system: UACC-257 melanoma
# K-562 leukemia = test system: K-562 leukemia
# A549 NSCLC = test system: A549 NSCLC
# SW-620 colon = test system: SW-620 colon
# SN12C renal = test system: SN12C renal
# 786-0 renal = test system: 786-0 renal
# SK-OV-3 ovarian = test system: SK-OV-3 ovarian
# ACHN renal = test system: ACHN renal
# HCT-15 colon = test system: HCT-15 colon
# DU-145 prostate = test system: DU-145 prostate
# T-47D breast = test system: T-47D breast
# OVCAR-8 ovarian = test system: OVCAR-8 ovarian
# PC-3 prostate = test system: PC-3 prostate
# RPMI-8226 leukemia = test system: RPMI-8226 leukemia
# SK-MEL-28 melanoma = test system: SK-MEL-28 melanoma
# LOX IMVI melanoma = test system: LOX IMVI melanoma
# HL-60(TB) leukemia = test system: HL-60(TB) leukemia
# SNB-19 CNS = test system: SNB-19 CNS
# HOP-62 NSCLC = test system: HOP-62 NSCLC
# U251 CNS = test system: U251 CNS
# OVCAR-5 ovarian = test system: OVCAR-5 ovarian
# IGROV1 ovarian = test system: IGROV1 ovarian
# COLO 205 colon = test system: COLO 205 colon
# HCC-2998 colon = test system: HCC-2998 colon
# CCRF-CEM leukemia = test system: CCRF-CEM leukemia
# UACC-62 melanoma = test system: UACC-62 melanoma
# TK-10 renal = test system: TK-10 renal
# MOLT-4 leukemia = test system: MOLT-4 leukemia
# SK-MEL-5 melanoma = test system: SK-MEL-5 melanoma
# NCI-H23 lung = test system: NCI-H23 lung
# A498 renal = test system: A498 renal
# M14 melanoma = test system: M14 melanoma
# SF-539 CNS = test system: SF-539 CNS
# MCF7 breast = test system: MCF7 breast
# EKVX NSCLC = test system: EKVX NSCLC
# MDA-MB-435 = test system: MDA-MB-435
# MALME-3M melanoma = test system: MALME-3M melanoma
# NCI-H522 lung = test system: NCI-H522 lung
# UO-31 renal = test system: UO-31 renal
# OVCAR-3 ovarian = test system: OVCAR-3 ovarian
# NCI-H460 lung = test system: NCI-H460 lung
# RXF 393 renal = test system: RXF 393 renal
# OVCAR-4 ovarian = test system: OVCAR-4 ovarian
compound,measurement,setting,value
CSc1nn2c(-c3ccc4ccccc4c3)ccnc2c1C#N,GI50,BT-549 breast,2.29 µM
same,TGI,BT-549 breast,> 100 µM
same,GI50,MDA-MB-231 breast,1.11 µM
same,TGI,MDA-MB-231 breast,5.88 µM
same,GI50,SR leukemia,0.343 µM
same,TGI,SR leukemia,> 100 µM
same,GI50,SK-MEL-2 melanoma,0.874 µM
same,TGI,SK-MEL-2 melanoma,> 100 µM
same,GI50,HOP-92 NSCLC,1.71 µM
same,TGI,HOP-92 NSCLC,6.55 µM
same,GI50,HT29 colon,0.454 µM
same,TGI,HT29 colon,> 100 µM
same,GI50,SF-268 CNS,1.29 µM
same,TGI,SF-268 CNS,> 100 µM
same,GI50,CAKI-1 renal,0.55 µM
same,TGI,CAKI-1 renal,> 100 µM
same,GI50,SNB-75 CNS,0.197 µM
same,TGI,SNB-75 CNS,1.51 µM
same,GI50,KM12 colon,0.49 µM
same,TGI,KM12 colon,> 100 µM
same,GI50,HS 578T breast,1.05 µM
same,TGI,HS 578T breast,> 100 µM
same,GI50,SF-295 CNS,1.78 µM
same,TGI,SF-295 CNS,> 100 µM
same,GI50,NCI-H226 lung,2.81 µM
same,TGI,NCI-H226 lung,> 100 µM
same,GI50,UACC-257 melanoma,6.93 µM
same,TGI,UACC-257 melanoma,> 100 µM
same,GI50,K-562 leukemia,0.306 µM
same,TGI,K-562 leukemia,> 100 µM
same,GI50,A549 NSCLC,0.828 µM
same,TGI,A549 NSCLC,> 100 µM
same,GI50,SW-620 colon,0.428 µM
same,TGI,SW-620 colon,> 100 µM
same,GI50,SN12C renal,0.857 µM
same,TGI,SN12C renal,> 100 µM
same,GI50,786-0 renal,2.11 µM
same,TGI,786-0 renal,> 100 µM
same,GI50,SK-OV-3 ovarian,2.2 µM
same,TGI,SK-OV-3 ovarian,> 100 µM
same,GI50,ACHN renal,1.14 µM
same,TGI,ACHN renal,> 100 µM
same,GI50,HCT-15 colon,0.39 µM
same,TGI,HCT-15 colon,> 100 µM
same,GI50,DU-145 prostate,6.99 µM
same,TGI,DU-145 prostate,> 100 µM
same,GI50,T-47D breast,4.05 µM
same,TGI,T-47D breast,> 100 µM
same,GI50,OVCAR-8 ovarian,0.944 µM
same,TGI,OVCAR-8 ovarian,> 100 µM
same,GI50,PC-3 prostate,2.98 µM
same,TGI,PC-3 prostate,> 100 µM
same,GI50,RPMI-8226 leukemia,0.599 µM
same,TGI,RPMI-8226 leukemia,> 100 µM
same,GI50,SK-MEL-28 melanoma,1.16 µM
same,TGI,SK-MEL-28 melanoma,> 100 µM
same,GI50,LOX IMVI melanoma,0.754 µM
same,TGI,LOX IMVI melanoma,> 100 µM
same,GI50,HL-60(TB) leukemia,0.668 µM
same,TGI,HL-60(TB) leukemia,> 100 µM
same,GI50,SNB-19 CNS,1.22 µM
same,TGI,SNB-19 CNS,> 100 µM
same,GI50,HOP-62 NSCLC,1.09 µM
same,TGI,HOP-62 NSCLC,> 100 µM
same,GI50,U251 CNS,0.989 µM
same,TGI,U251 CNS,> 100 µM
same,GI50,OVCAR-5 ovarian,5.14 µM
same,TGI,OVCAR-5 ovarian,> 100 µM
same,GI50,IGROV1 ovarian,0.763 µM
same,TGI,IGROV1 ovarian,> 100 µM
same,GI50,COLO 205 colon,0.727 µM
same,TGI,COLO 205 colon,> 100 µM
same,GI50,HCC-2998 colon,6.02 µM
same,TGI,HCC-2998 colon,> 100 µM
same,GI50,CCRF-CEM leukemia,7.51 µM
same,TGI,CCRF-CEM leukemia,> 100 µM
same,GI50,UACC-62 melanoma,0.439 µM
same,TGI,UACC-62 melanoma,6.51 µM
same,GI50,TK-10 renal,5.09 µM
same,TGI,TK-10 renal,> 100 µM
same,GI50,MOLT-4 leukemia,0.668 µM
same,TGI,MOLT-4 leukemia,> 100 µM
same,GI50,SK-MEL-5 melanoma,0.693 µM
same,TGI,SK-MEL-5 melanoma,> 100 µM
same,GI50,NCI-H23 lung,2.04 µM
same,TGI,NCI-H23 lung,> 100 µM
same,GI50,A498 renal,0.176 µM
same,TGI,A498 renal,0.897 µM
same,GI50,M14 melanoma,0.39 µM
same,TGI,M14 melanoma,27.4 µM
same,GI50,SF-539 CNS,1.3 µM
same,TGI,SF-539 CNS,64.8 µM
same,GI50,MCF7 breast,1.3 µM
same,TGI,MCF7 breast,> 100 µM
same,GI50,EKVX NSCLC,3.04 µM
same,TGI,EKVX NSCLC,> 100 µM
same,GI50,MDA-MB-435,0.229 µM
same,TGI,MDA-MB-435,0.641 µM
same,GI50,MALME-3M melanoma,0.663 µM
same,TGI,MALME-3M melanoma,44.5 µM
same,GI50,NCI-H522 lung,0.442 µM
same,TGI,NCI-H522 lung,> 100 µM
CCN(CC)CCCN1C(=O)c2c(c(C)c3c(oc4ccc(O)cc43)c2C)C1=O,GI50,BT-549 breast,1.75 µM
same,TGI,BT-549 breast,3.26 µM
same,GI50,MDA-MB-231 breast,1.91 µM
same,TGI,MDA-MB-231 breast,3.58 µM
same,GI50,SR leukemia,0.765 µM
same,TGI,SR leukemia,2.78 µM
same,GI50,UO-31 renal,1.58 µM
same,TGI,UO-31 renal,3.01 µM
same,GI50,SK-MEL-2 melanoma,17 µM
same,TGI,SK-MEL-2 melanoma,35.9 µM
same,GI50,HOP-92 NSCLC,1.33 µM
same,TGI,HOP-92 NSCLC,2.81 µM
same,GI50,OVCAR-3 ovarian,1.85 µM
same,TGI,OVCAR-3 ovarian,3.42 µM
same,GI50,HT29 colon,1.55 µM
same,TGI,HT29 colon,3.02 µM
same,GI50,SF-268 CNS,1.69 µM
same,TGI,SF-268 CNS,3.43 µM
same,GI50,NCI-H460 lung,1.83 µM
same,TGI,NCI-H460 lung,3.47 µM
same,GI50,CAKI-1 renal,2.33 µM
same,TGI,CAKI-1 renal,6.52 µM
same,GI50,SNB-75 CNS,1.59 µM
same,TGI,SNB-75 CNS,2.98 µM
same,GI50,RXF 393 renal,1.49 µM
same,TGI,RXF 393 renal,2.97 µM
same,GI50,KM12 colon,1.83 µM
same,TGI,KM12 colon,3.55 µM
same,GI50,HS 578T breast,2.15 µM
same,TGI,HS 578T breast,5.31 µM
same,GI50,SF-295 CNS,1.82 µM
same,TGI,SF-295 CNS,3.26 µM
same,GI50,NCI-H226 lung,1.93 µM
same,TGI,NCI-H226 lung,4.27 µM
same,GI50,UACC-257 melanoma,1.88 µM
same,TGI,UACC-257 melanoma,3.92 µM
same,GI50,K-562 leukemia,1.71 µM
same,TGI,K-562 leukemia,3.77 µM
same,GI50,A549 NSCLC,1.65 µM
same,TGI,A549 NSCLC,3.23 µM
same,GI50,SW-620 colon,1.7 µM
same,TGI,SW-620 colon,3.52 µM
same,GI50,SN12C renal,1.78 µM
same,TGI,SN12C renal,3.36 µM
same,GI50,786-0 renal,1.74 µM
same,TGI,786-0 renal,3.32 µM
same,GI50,SK-OV-3 ovarian,1.7 µM
same,TGI,SK-OV-3 ovarian,3.1 µM
same,GI50,ACHN renal,1.62 µM
same,TGI,ACHN renal,2.98 µM
same,GI50,HCT-15 colon,1.68 µM
same,TGI,HCT-15 colon,3.22 µM
same,GI50,DU-145 prostate,1.84 µM
same,TGI,DU-145 prostate,3.29 µM
same,GI50,T-47D breast,2.17 µM
same,TGI,T-47D breast,5.33 µM
same,GI50,RPMI-8226 leukemia,1.85 µM
same,TGI,RPMI-8226 leukemia,4.28 µM
same,GI50,SK-MEL-28 melanoma,1.82 µM
same,TGI,SK-MEL-28 melanoma,3.38 µM
same,GI50,LOX IMVI melanoma,1.79 µM
same,TGI,LOX IMVI melanoma,3.32 µM
same,GI50,HL-60(TB) leukemia,1.57 µM
same,TGI,HL-60(TB) leukemia,3.43 µM
same,GI50,OVCAR-4 ovarian,1.93 µM
same,TGI,OVCAR-4 ovarian,3.68 µM
same,GI50,U251 CNS,1.58 µM
same,TGI,U251 CNS,2.98 µM
same,GI50,OVCAR-5 ovarian,1.7 µM
same,TGI,OVCAR-5 ovarian,3.13 µM
same,GI50,IGROV1 ovarian,1.74 µM
same,TGI,IGROV1 ovarian,3.31 µM
same,GI50,COLO 205 colon,2.64 µM
same,TGI,COLO 205 colon,10.8 µM
same,GI50,HCC-2998 colon,2.67 µM
same,TGI,HCC-2998 colon,7.39 µM
same,GI50,UACC-62 melanoma,16.1 µM
same,TGI,UACC-62 melanoma,31.5 µM
same,GI50,TK-10 renal,1.84 µM
same,TGI,TK-10 renal,3.35 µM
same,GI50,MOLT-4 leukemia,1.8 µM
same,TGI,MOLT-4 leukemia,4.26 µM
same,GI50,SK-MEL-5 melanoma,1.71 µM
same,TGI,SK-MEL-5 melanoma,3.12 µM
same,GI50,NCI-H23 lung,1.99 µM
same,TGI,NCI-H23 lung,3.8 µM
same,GI50,A498 renal,12.6 µM
same,TGI,A498 renal,27.2 µM
same,GI50,M14 melanoma,1.76 µM
same,TGI,M14 melanoma,3.2 µM
same,GI50,SF-539 CNS,1.72 µM
same,TGI,SF-539 CNS,3.11 µM
same,GI50,MCF7 breast,1.81 µM
same,TGI,MCF7 breast,3.71 µM
same,GI50,EKVX NSCLC,1.69 µM
same,TGI,EKVX NSCLC,3.27 µM
same,GI50,MDA-MB-435,1.84 µM
same,TGI,MDA-MB-435,3.53 µM
same,GI50,MALME-3M melanoma,1.73 µM
same,TGI,MALME-3M melanoma,3.25 µM
same,GI50,NCI-H522 lung,1.84 µM
same,TGI,NCI-H522 lung,3.75 µM

# From PubChem BioAssay (NCI)
